Measured values taken from US10150760B2, “Compounds for use in preparing heterocyclic triazole agonists of the APJ receptor” (AMGEN INC., priority 2016, dated 2018).
pEC50: −log10 of the molar value.

Key:
human APJ receptor = human APJ receptor (Homo sapiens (Human), UniProt P35414); assay: [35S]GTPγS binding assay on membranes from CHO cells stably expressing human APJ receptor; assay type: biochemical; settings: read-out: Activity hAPJ SPA EC50 IP
Summary of the method: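 Membranes from CHO cells stably expressing human APJ incubated with ligand, 0.2 nM [35S]GTPγS and WGA SPA beads in HEPES pH 7.5 with 5 mM MgCl2, 200 mM NaCl, 3 μM GDP, 90 min at RT. Nonspecific binding defined with 100 μM GTPγS; EC50 by non-linear regression.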

[1] = system: isolated perfused rat hearts; assay: Ex vivo isolated perfused rat heart assay (Langendorff apparatus), load independent inotropic and lusitropic effects; design: species or system Sprague Dawley rat; settings: ex vivo isolated perfused rat heart, percent change over vehicle; for Isolated Heart Assay dP/dtmax (%): contractility; for Isolated Heart Assay dP/dtmin (%): relaxation
Source text: Evidence for Load Independent Inotropic Effects with APJ Agonists Using Ex Vivo Assay (Isolated Perfused Rat Hearts)
Naive Sprague Dawley® SD rats (Harlan laboratories (Livermore, Calif. USA)) were anaesthetized and hearts were excised followed by cannulation in the Langendorff apparatus (Harvard apparatus, Holliston, Mass. USA) via aorta. The heart was perfused retrograde with modified oxygenated Krebs-Henseleit buffer (Skrzypiec-Spring M et al., (2007) J. Pharmacol Toxicol Methods 55: 113-126). The pressure of the solution causes the aortic valve to shut and the perfusate is then forced into the ostium and the coronary vessels. This allows the heart to beat for several h. A balloon was inserted into the left ventricle (LV) to measure dP/dtmax (derivative of left ventricular pressure) as an index of cardiac contractility. The APJ agonist was perfused constantly in a dose dependent manner into the heart to examine cardiac contractility.
Example 49.0 was infused at different concentrations and load independent contractility was measured by index of LV dP/dtmax and the results are expressed as a percent change over vehicle. […] Example 49.0 was infused at different concentrations and load independent lusitropic effect (relaxation) was measured by index of LV dP/dtmin where results are expressed as percent change over vehicle. […] Example 60.0 was infused at different concentrations and load independent contractility was measured by index of LV dP/dtmax and the results are expressed as a percent change over vehicle. […] Example 60.0 was infused at different concentrations and load independent lusitropic effect (relaxation) was measured by index of LV dP/dtmin where results are expressed as percent change over vehicle.

Chain of human APJ receptor (P35414 whole entry): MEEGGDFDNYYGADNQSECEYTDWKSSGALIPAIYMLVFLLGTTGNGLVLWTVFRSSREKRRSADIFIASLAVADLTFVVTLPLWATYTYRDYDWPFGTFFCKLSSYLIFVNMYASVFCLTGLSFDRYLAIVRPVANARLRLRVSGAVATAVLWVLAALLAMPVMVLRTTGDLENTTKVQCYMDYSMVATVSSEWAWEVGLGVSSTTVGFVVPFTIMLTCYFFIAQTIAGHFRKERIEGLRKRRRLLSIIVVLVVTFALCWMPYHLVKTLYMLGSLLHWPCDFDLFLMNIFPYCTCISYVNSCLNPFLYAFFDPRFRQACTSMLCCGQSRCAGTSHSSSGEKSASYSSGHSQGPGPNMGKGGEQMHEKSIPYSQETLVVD

Row | Compound | pEC50 (human APJ receptor) | Isolated Heart Assay dP/dtmax (%) [1] | Isolated Heart Assay dP/dtmin (%) [1]
1 | COc1cccc(OC)c1-n1c(NS(=O)(=O)[C@@H](C)[C@H](OC)c2ncc(Cl)cn2)nnc1[C@H]1CC[C@@H](C)O1 (single isomer, unassigned) [Example 77.0, (1R,2S)-1-(5-chloropyrimidin-2-yl)-N-(4-(2,6-dimethoxyphenyl)-5-((2S,5S)-5-methyltetrahydrofuran-2-yl)-4H-1,2,4-triazol-3-yl)-1-methoxy-propane-2-sulfonamide or (1R,2S)-1-(5-chloropyrimidin-2-yl)-N-(4-(2,6-dimethoxyphenyl)-5-((2R,5R)-5-methyltetrahydrofuran-2-yl)-4H-1,2,4-triazol-3-yl)-1-methoxypropane-2-sulfonamide] | 9.85 | 5.0% | No effect
2 | COc1ncnc(OC)c1-n1c(NS(=O)(=O)[C@@H](C)[C@H](OC)c2ncc(Cl)cn2)nnc1[C@H]1CCCO1 (single isomer, unassigned) [Example 80.0, (1R,2S)-1-(5-chloropyrimidin-2-yl)-N-(4-(4,6-dimethoxypyrimidin-5-yl)-5-((S)-tetrahydrofuran-2-yl)-4H-1,2,4-triazol-3-yl)-1-methoxypropane-2-sulfonamide or (1R,2S)-1-(5-chloropyrimidin-2-yl)-N-(4-(4,6-dimethoxypyrimidin-5-yl)-5-((R)-tetrahydrofuran-2-yl)-4H-1,2,4-triazol-3-yl)-1-methoxypropane-2-sulfonamide] | 8.04 | No effect | No effect
3 | COc1cccc(OC)c1-n1c(NS(=O)(=O)[C@@H](C)[C@H](C)c2ncc(C)cn2)nnc1[C@H]1OCC[C@H]1C (single isomer, unassigned) [Example 72.0, (2S,3R)-N-(4-(2,6-dimethoxyphenyl)-5-((2R,3S)-3-methyltetrahydrofuran-2-yl)-4H-1,2,4-triazol-3-yl)-3-(5-methylpyrimidin-2-yl)butane-2-sulfonamide or (2S,3R)-N-(4-(2,6-dimethoxyphenyl)-5-((2S,3R)-3-methyltetrahydrofuran-2-yl)-4H-1,2,4-triazol-3-yl)-3-(5-methylpyrimidin-2-yl)butane-2-sulfonamide] | 8.17 | 5.9% | 2.5%
4 | COc1cccc(OC)c1-n1c(NS(=O)(=O)[C@@H](C)[C@H](OC)c2ncc(Cl)cn2)nnc1[C@H]1OCC[C@H]1C (single isomer, unassigned) [Example 74.0, (1R,2S)-1-(5-chloropyrimidin-2-yl)-N-(4-(2,6-dimethoxyphenyl)-5-((2R,3S)-3-methyltetrahydrofuran-2-yl)-4H-1,2,4-triazol-3-yl)-1-methoxypropane-2-sulfonamide or (1R,2S)-1-(5-chloropyrimidin-2-yl)-N-(4-(2,6-dimethoxyphenyl)-5-((2S,3R)-3-methyltetrahydrofuran-2-yl)-4H-1,2,4-triazol-3-yl)-1-methoxypropane-2-sulfonamide] | 6.92 | 5.8% | 2.1%
5 | CO[C@H](c1ncc(Cl)cn1)[C@H](C)S(=O)(=O)Nc1nnc([C@H]2CCCCO2)n1C1(C)CC1 (single isomer, unassigned) [Example 112.0, (1R,2S)-1-(5-chloropyrimidin-2-yl)-1-methoxy-N-(4-(1-methylcyclopropyl)-5-((S)-tetrahydro-2H-pyran-2-yl)-4H-1,2,4-triazol-3-yl)propane-2-sulfonamide or (1R,2S)-1-(5-chloropyrimidin-2-yl)-1-methoxy-N-(4-(1-methylcyclopropyl)-5-((R)-tetrahydro-2H-pyran-2-yl)-4H-1,2,4-triazol-3-yl)propane-2-sulfonamide] | 7.85 | No effect | No effect
6 | COc1cccc(OC)c1-n1c(NS(=O)(=O)[C@@H](C)[C@H](C)c2ncc(F)cn2)nnc1[C@@H]1COCCO1 (single isomer, unassigned) [Example 275.0, (2S,3R)-N-(4-(2,6-dimethoxyphenyl)-5-((R)-1,4-dioxan-2-yl)-4H-1,2,4-triazol-3-yl)-3-(5-fluoropyrimidin-2-yl)butane-2-sulfonamide or (2S,3R)-N-(4-(2,6-dimethoxyphenyl)-5-((S)-1,4-dioxan-2-yl)-4H-1,2,4-triazol-3-yl)-3-(5-fluoropyrimidin-2-yl)butane-2-sulfonamide] | 7.70 | 7.95% | 13.5%
7 | COc1cccc(OC)c1-n1c(NS(=O)(=O)[C@@H](C)[C@H](OC)c2ncc(Cl)cn2)nnc1[C@H]1CCOC1 (single isomer, unassigned) [Example 56.0, (1R,2S)-1-(5-chloropyrimidin-2-yl)-N-(4-(2,6-dimethoxyphenyl)-5-((R)-tetrahydrofuran-3-yl)-4H-1,2,4-triazol-3-yl)-1-methoxypropane-2-sulfonamide or (1R,2S)-1-(5-chloropyrimidin-2-yl)-N-(4-(2,6-dimethoxyphenyl)-5-((S)-tetrahydrofuran-3-yl)-4H-1,2,4-triazol-3-yl)-1-methoxypropane-2-sulfonamide] | 7.72 | 6.8% | 7.1%
8 | COc1cccc(OC)c1-n1c(NS(=O)(=O)[C@@H](C)[C@H](OC)c2ncc(Cl)cn2)nnc1[C@H]1OCC[C@H]1C (single isomer, unassigned) [Example 73.0, (1R,2S)-1-(5-chloropyrimidin-2-yl)-N-(4-(2,6-dimethoxyphenyl)-5-((2R,3S)-3-methyltetrahydrofuran-2-yl)-4H-1,2,4-triazol-3-yl)-1-methoxypropane-2-sulfonamide or (1R,2S)-1-(5-chloropyrimidin-2-yl)-N-(4-(2,6-dimethoxyphenyl)-5-((2S,3R)-3-methyltetrahydrofuran-2-yl)-4H-1,2,4-triazol-3-yl)-1-methoxypropane-2-sulfonamide] | 8.85 | 2.0% | No effect
9 | COc1ncnc(OC)c1-n1c(NS(=O)(=O)[C@@H](C)[C@H](C)c2ncc(Cl)cn2)nnc1[C@H]1CCCOC1 (single isomer, unassigned) [Example 102.0, (2S,3R)-3-(5-chloropyrimidin-2-yl)-N-(4-(4,6-dimethoxypyrimidin-5-yl)-5-((S)-tetrahydro-2H-pyran-3-yl)-4H-1,2,4-triazol-3-yl)butane-2-sulfonamide or (2S,3R)-3-(5-chloropyrimidin-2-yl)-N-(4-(4,6-dimethoxypyrimidin-5-yl)-5-((R)-tetrahydro-2H-pyran-3-yl)-4H-1,2,4-triazol-3-yl)butane-2-sulfonamide] | 8.28 | 2.0% | 5.0%
10 | COc1cccc(OC)c1-n1c(NS(=O)(=O)[C@@H](C)[C@H](OC)c2ncc(Cl)cn2)nnc1[C@H]1CCCO1 (single isomer, unassigned) [Example 51.0, (1R,2S)-1-(5-chloropyrimidin-2-yl)-N-(4-(2,6-dimethoxyphenyl)-5-((R)-tetrahydrofuran-2-yl)-4H-1,2,4-triazol-3-yl)-1-methoxypropane-2-sulfonamide or (1R,2S)-1-(5-chloropyrimidin-2-yl)-N-(4-(2,6-dimethoxyphenyl)-5-((S)-tetrahydrofuran-2-yl)-4H-1,2,4-triazol-3-yl)-1-methoxypropane-2-sulfonamide] | 9.23 | No effect | No effect
11 | COc1cccc(OC)c1-n1c(NS(=O)(=O)[C@@H](C)[C@H](C)c2ncc(Cl)cn2)nnc1[C@H]1CCO1 (single isomer, unassigned) [Example 445.0, (2S,3R)-3-(5-chloropyrimidin-2-yl)-N-(4-(2,6-dimethoxyphenyl)-5-((R)-oxetan-2-yl)-4H-1,2,4-triazol-3-yl)butane-2-sulfonamide or (2S,3R)-3-(5-chloropyrimidin-2-yl)-N-(4-(2,6-dimethoxyphenyl)-5-((S)-oxetan-2-yl)-4H-1,2,4-triazol-3-yl)butane-2-sulfonamide] | 7.52 | – | –
12 | (1S,2S)-N-(4-(1,3-dimethoxy-2-propanyl)-5-((2R,5R)-5-methyltetrahydro-2-furanyl)-4H-1,2,4-triazol-3-yl)-1-(5-fluoro-2-pyrimidinyl)-1-(2-propanyloxy)-2-propanesulfonamide or (1S,2S)-N-(4-(1,3-dimethoxy-2-propanyl)-5-((2S,5S)-5-methyltetrahydro-2-furanyl)-4H-1,2,4-triazol-3-yl)-1-(5-fluoro-2-pyrimidinyl)-1-(2-propanyloxy)-2-propanesulfonamide [Example 361.0] | 8.00 | – | –
